Legend:
[1] = system: ALAS1; assay: qRT-PCR analysis of ALAS1 expression in SKCO1 cells; type: cell-based, human
[2] = system: SH-SY5Y cells; assay: Heme content in SHSY-5Y cells; type: cell-based, human
Description: (A) Frequency (%) of patient tumors with overexpression of FLVCR1 compared to their matched normal tissues across multiple cancer types. The number of patients showing tumor FLVCR1 overexpression relative to the total number of patients examined are indicated in the plot. Data derive from the BioXpress (Wan et al., 2015). […] Transcript abundance, normalized to beta-actin mRNA expression (for SHSY-5Y cells) or to 18s mRNA (for BTECs), is expressed as a fold increase over a calibrator sample. Data represent mean±SEM, n=4. For statistical analyses, an unpaired Student's t-test was used; ***p<0.001. (C, E) Western blot analysis of FLVCR1a expression in SHSY-5Y cells (C) and BTECs (E). Vinculin expression is shown as a loading control. Band intensities were measured by densitometry and normalized to vinculin expression. […] Values are expressed as pmol heme/mg protein. […] Values are expressed as pmol heme/mg protein. […]
(A) Heme content in SHSY5Y cells non-treated (NT) or treated with 5 mM ALA for 15 hours. Values are expressed as pmol heme/mg protein. […] Transcript abundance, normalized to beta-actin mRNA expression, is expressed as a fold increase over a calibrator sample. […] Transcript abundance, normalized to beta-actin mRNA expression, is expressed as a fold increase over a calibrator sample. […] Band intensities were measured by densitometry and normalized to beta-actin expression. […]

| Molecule | ALAS1 mRNA levels ([1]; SKCO1 cells, 5 mM ALA for 24 hours vs untreated) | heme content inside the cells ([2]; 5 mM ALA for 15 hours vs non-treated) | ALAS1 expression (qRT-PCR) ([1]; FLVCR1a-silenced vs scramble shRNA SKCO1 cells) | heme accumulation upon stimulation of de-novo heme biosynthesis ([2]; FLVCR1a-silenced vs scramble shRNA, 5 mM 5-ALA for 15 hours) |
| --- | --- | --- | --- | --- |
| Cl.NCC(=O)CCC(=O)O [5-ALA, 5-Aminolevulinic acid hydrochloride] | decreased | promoted heme accumulation inside the cells | – | – |
| FLVCR1a shRNA: shRNA specifically down-regulating FLVCR1a without targeting FLVCR1b; pLKO.1 lentiviral clone TRCN0000059599, antisense SEQ ID No.: 2 (antisense TTGCTAATGATGCTGTACTGG; sense CCAGTACAGCATCATTAGCAA) | – | – | reduced ALAS1 expression | higher heme accumulation than controls |
